Values quoted from earlier work, collected in PMC11839696 (European Journal of Nuclear Medicine and Molecular Imaging, 2024).

Test system: prostate cancer tissue
Design: AUC of the ROC analysis: unit not given beside the values

In the case of `O=C(O)CC[C@H](NC(=O)N[C@@H](CCCCNC(=O)[C@H](Cc1ccc2ccccc2c1)NC(=O)c1ccc(CNC(=O)[C@H](CCC(=O)O)NC(=O)[C@H](CCC(=O)O)NC(=O)c2ccc([18F])nc2)cc1)C(=O)O)C(=O)O` [[^18F]-PSMA-1007], the sensitivity (at 75 CPM) is listed as 65.1%, the specificity (at 75 CPM) is listed as 87% and the “optimal threshold for determining PCa” value (five patients, 113 cores) is listed as 75 CPM. The “AUC of the ROC analysis” value (five patients, 113 cores, within 3 h after injection) was 0.81.
